Several values for one entry are separate records, joined by “and”; a condition that tells them apart may be missing. Equal values may be shown once.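 Interpolation was linear, between the two tested concentrations surrounding the appropriate level; five concentrations were tested over 48 hours in 96-well plates. Abbreviation: GI50, concentration required for 50% inhibition of growth. TGI denotes the concentration required for complete inhibition of growth.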
Tests used:
Experiment in all cases: NCI tumour cell line growth inhibition, 48 h
PC-3 prostate = system: PC-3 prostate
OVCAR-8 ovarian = system: OVCAR-8 ovarian
MDA-MB-231 breast = system: MDA-MB-231 breast
SK-MEL-5 melanoma = system: SK-MEL-5 melanoma
UO-31 renal = system: UO-31 renal
LOX IMVI melanoma = system: LOX IMVI melanoma
HL-60(TB) leukemia = system: HL-60(TB) leukemia
DU-145 prostate = system: DU-145 prostate
SF-295 CNS = system: SF-295 CNS
HS 578T breast = system: HS 578T breast

Compound | GI50 (PC-3 prostate) [µM] | TGI (PC-3 prostate) | GI50 (OVCAR-8 ovarian) | TGI (OVCAR-8 ovarian) | GI50 (MDA-MB-231 breast) [µM] | TGI (MDA-MB-231 breast) | GI50 (SK-MEL-5 melanoma) [µM] | TGI (SK-MEL-5 melanoma) | GI50 (UO-31 renal) | TGI (UO-31 renal) | GI50 (LOX IMVI melanoma) [µM] | TGI (LOX IMVI melanoma) | GI50 (HL-60(TB) leukemia) | TGI (HL-60(TB) leukemia) | GI50 (DU-145 prostate) [µM] | TGI (DU-145 prostate) | GI50 (SF-295 CNS) | TGI (SF-295 CNS) | GI50 (HS 578T breast) [µM] | TGI (HS 578T breast) [µM]
O=C1C(=O)c2c(nc3ccc(C(F)(F)F)cn23)-c2ccccc21 | 0.21 | 0.761 µM | 0.253 µM | 0.651 µM | 0.215 | 0.74 µM | 0.171 | 0.31 µM | 0.164 µM | 0.345 µM | 0.173 | 0.354 µM | 0.201 µM | 0.6 µM | 0.185 | 0.345 µM | 0.436 µM | 0.855 µM | 0.206 | 0.523
COc1cc(/C=N/NC(=O)c2cnn3c2NC(c2ccccc2)C3)ccc1OC1CCCC1 (stereo unspecified) | 0.503 | 3.44 µM | 1.57 µM | 7.61 µM | 1.67 | 7.85 µM | 0.59 | 4.77 µM | 1.22 µM | 6.59 µM | 0.581 | 2.21 µM | 0.384 µM | 3.93 µM | 1.06 | 7.03 µM | 0.367 µM | 1.66 µM | 0.705 | 4.14
COc1ccc(-n2c(=S)sc3c(Cl)nc(C)nc32)c(OC)c1 | 2.37 | 5.91 µM | 2.66 µM | 7.4 µM | 3.16 | 10.3 µM | – | – | 3.62 µM | 15.4 µM | 1.71 | 3.19 µM | 1.43 µM | 5.83 µM | 1.84 | 3.25 µM | 7.06 µM | 20.1 µM | 2.66 | 7.71
CCOC(=O)Nc1ccc2nc(-c3cscn3)[nH]c2c1 | 10.4 | > 100 µM | 7.89 µM | > 100 µM | 7.81 | > 100 µM | 3.33 | > 49.1 µM | 8.77 µM | > 100 µM | 5.18 | > 100 µM | 3.17 µM | > 100 µM | 9.61 | > 100 µM | 4.78 µM | 57.6 µM | 8.3 | 92.6
Clc1ccccc1C(Nc1cnccn1)Nc1cnccn1 | – | > 100 µM | – | > 100 µM | – | > 100 µM | – | > 100 µM | – | > 100 µM | – | > 100 µM | – | > 100 µM | – | > 100 µM | – | > 100 µM | – | > 100
CN1CCN(C2=NC(=O)/C(=C\c3ccc(N(C)C)cc3)S2)CC1 | > 100 | > 100 µM | > 100 µM | > 100 µM | 74.5 | > 100 µM | > 100 | > 100 µM | 71 µM | > 100 µM | 75.1 | > 100 µM | 46 µM | > 100 µM | > 100 | > 100 µM | > 100 µM | > 100 µM | > 100 | > 100
CC1CCC2C(C)C(=O)OC2C2(C)C(=O)C=CC12 (stereo unspecified) | – | > 10 µM | – | > 10 µM | – | > 10 µM | – | > 10 µM | – | > 10 µM | – | > 10 µM | – | > 10 µM | – | > 10 µM | – | > 10 µM | – | > 10
OCC(O)C(O)C(O)C(/C=N\Nc1ncnc2c(Br)cc(Br)cc12)=N/Nc1ncnc2c(Br)cc(Br)cc12 (stereo unspecified) | – | 13 µM and > 100 µM | 11.7 µM and 3.76 µM | 28.3 µM and > 100 µM | – | 15.7 µM and > 100 µM | – | 16.4 µM and 18.7 µM | 21.7 µM and > 100 µM | 54.2 µM and > 100 µM | – | 31.4 µM and > 100 µM | 6.47 µM and 2.8 µM | > 100 µM | – | 14.7 µM and > 100 µM | 2.46 µM and 10.9 µM | – | – | > 100
O=C1NC(=NCCc2ccc(Cl)cc2)S/C1=C\c1ccc2ncccc2c1 | > 25 | > 25 µM | 12.9 µM | > 25 µM | > 25 | > 25 µM | 15.8 | > 25 µM | > 18.9 µM | > 25 µM | > 20.9 | > 25 µM | 8.69 µM | > 25 µM | 24.4 | > 25 µM | 24.4 µM | > 25 µM | 9.77 | > 25
N#C/C(=C\c1ccc2[nH]ccc2c1)C(=O)NCCCCNC(=O)/C(C#N)=C/c1ccc2[nH]ccc2c1 | – | > 10 µM | – | > 31.6 µM | – | > 10 µM | – | > 31.6 µM | – | > 31.6 µM | – | > 31.6 µM | – | > 31.6 µM | – | > 10 µM | – | > 31.6 µM | – | > 10
Cc1cccc(N2C(=O)/C(=C/C(Cl)=C/c3ccc([N+](=O)[O-])cc3)SC2=S)c1C | 1.39 | 4.93 µM | 1.08 µM | > 100 µM | 2.2 | 5.52 µM | 1.49 | 2.91 µM | 1.29 µM | 2.56 µM | 1.42 | 3.25 µM | 1.91 µM | 6.94 µM | 3.98 | > 100 µM | 2.28 µM | 5.25 µM | 2.8 | > 100
Cn1c(COC(=O)NCCc2ccccn2)nc2c(N3CCOCC3)nc(Cl)nc21 | 1.64 | 3.56 µM | 2.38 µM | 10.1 µM | 1.62 | 3.63 µM | 1.74 | 3.29 µM | 1.19 µM | 2.45 µM | 0.899 | 2.39 µM | 1.17 µM | 4.61 µM | 1.59 | 3.11 µM | 6.73 µM | 19.8 µM | 2 | 6.22
C[C@@]1(F)[C@H](O)[C@@H](CO)O[C@H]1n1ccc(=O)[nH]c1=O | > 100 | > 100 µM | > 100 µM | > 100 µM | > 100 | > 100 µM | > 100 | > 100 µM | > 100 µM | > 100 µM | > 100 | > 100 µM | > 100 µM | > 100 µM | > 100 | > 100 µM | > 100 µM | > 100 µM | > 100 | > 100
[N-]=[N+]=CC(=O)CCC(N)C(=O)O (stereo unspecified) | 29.8 | > 250 µM | 7.03 µM | > 218 µM | – | > 250 µM | 1.48 | 105 µM | 8.31 µM | 219 µM | 0.793 | 167 µM | 2.3 µM | 208 µM | 5.58 | > 250 µM | – | > 250 µM | 42.2 | > 250
COc1ccc2c(c1)C(=O)c1c-2c(OCCCN(C)C)nc2cc(Br)ccc12 | 3.04 | 7.78 µM | 2.63 µM | 6.95 µM | 3.18 | 13.5 µM | 15 | 28.3 µM | 1.36 µM | 2.88 µM | 11.3 | 23.7 µM | 29.4 µM | > 100 µM | 5.91 | 18.9 µM | 7.3 µM | 20.7 µM | 3.46 | 15.4
C[C@@H]1C[C@@H]([C@H](O)CC2CC(=O)NC(=O)C2)C(=O)[C@@H](C)C1 | 0.243 | 4.51 µM | 0.202 µM | 1.7 µM and 1.27 µM | 0.608 | 7.16 µM | 0.199 | 2.18 µM and 0.494 µM | 0.23 µM | 4.63 µM and 0.675 µM | 0.258 | 3.53 µM and 0.816 µM | 0.202 µM | 2.14 µM and 0.43 µM | 0.247 | – | 0.176 µM | 1.19 µM and 1.69 µM | 0.488 | –
CCC[CH2][Sn-]([CH2]CCC)([CH2]CCC)[O]C(=O)C(C)C | 0.107 | 0.25 µM | 0.129 µM | 0.255 µM | 0.103 | 0.227 µM | 0.157 | 0.291 µM | 0.158 µM | 0.312 µM | 0.0816 | 0.215 µM | 0.111 µM | 0.304 µM | 0.124 | 0.252 µM | 0.199 µM | 0.365 µM | 0.354 | 1.92
O=C1c2cccc3cccc(c23)C(=O)N1CCCCCN1CCN(CCN=c2cc3n(-c4ccc(Cl)cc4)c4ccccc4nc-3cc2Nc2ccc(Cl)cc2)CC1 | 6.36 | 28.4 µM | 12 µM | > 50 µM | 5.82 | 30.3 µM | 7.46 | 18.1 µM | – | – | 9.83 | 29.8 µM | 6.91 µM | 21.3 µM | 38.3 | > 50 µM | 13 µM | > 50 µM | 36.8 | > 50
C=C1C(=O)O[C@@H]2/C=C(/C)[C@@H](OC(C)=O)C/C=C(\C)C(O)[C@@H](OC(=O)/C(C)=C\C)C12 (stereo partly specified) | – | > 100 µM | – | 75.3 µM | – | 39.2 µM | – | 32.1 µM | – | – | – | 27.7 µM | – | 49.6 µM | – | > 100 µM | – | > 100 µM | – | > 100
O=c1c(-c2ccc3c(c2)OCO3)coc2c3c(ccc12)OCO3 | – | > 100 µM | – | – | – | 41 µM | – | > 100 µM | – | > 100 µM | – | > 100 µM | – | > 100 µM | – | > 100 µM | – | 37.1 µM | – | 59.4
COc1ccc(-n2cc(-c3ccc(OC)c(OC)c3)[nH]c2=O)cc1 | > 100 | > 100 µM | – | – | > 100 | > 100 µM | > 100 | > 100 µM | > 100 µM | > 100 µM | > 100 | > 100 µM | > 100 µM | > 100 µM | > 100 | > 100 µM | > 100 µM | > 100 µM | > 100 | > 100

— PubChem BioAssay (NCI)
